# Laboratory results reported in PubChem BioAssay AID2060908 (Molecular Pharmacology Branch, DTP, NCI, 2025).
# Test system: 186277-243-T-J2-PDC complex spheroids, viability
# Test: Anticancer human tumor 186277-243-T-J2-PDC patient-derived colon adenocarcinoma cell line growth inhibition [RAS]
# Conditions: for IC50: curve of first compound; for viability, T/C: stronger effect = lower value
# Outline: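 Agents were tested in combination matrices in half-log decrements from a top concentration at or near clinical Cmax (10 microM if undetermined). Targets were multi-cell spheroids of tumour lines plus HUVEC and MSC stromal cells.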
# 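Also: spheroids exposed to compounds for 7 days before viability read.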
structure (smiles),measurement,setting,value
CC(C)n1nc(-c2ccc3oc(N)nc3c2)c2c(N)ncnc21 + C#Cc1c(F)ccc2cc(O)cc(-c3ncc4c(N5CC6CCC(C5)N6)nc(OCC56CCCN5CC(F)C6)nc4c3F)c12,IC50,second compound 0.0316 µM,13.7 nM
same,IC50,second compound 0.1 µM,1.83 nM
same,IC50,second compound 0.316 µM,< 0.316 nM
same,IC50,second compound 1 µM,< 0.316 nM
same,IC50,second compound 3.16 µM,< 0.316 nM
same,IC50,second compound 10 µM,< 0.316 nM
same,"viability, T/C","second compound 0.0316 µM, first compound 0.000316 µM",69.1%
same,"viability, T/C","second compound 0.0316 µM, first compound 0.001 µM",90.7%
same,"viability, T/C","second compound 0.0316 µM, first compound 0.00316 µM",58.6%
same,"viability, T/C","second compound 0.0316 µM, first compound 0.01 µM",51.7%
same,"viability, T/C","second compound 0.0316 µM, first compound 0.0316 µM",44.2%
same,"viability, T/C","second compound 0.0316 µM, first compound 0.1 µM",25.9%
same,"viability, T/C","second compound 0.1 µM, first compound 0.000316 µM",63.1%
same,"viability, T/C","second compound 0.1 µM, first compound 0.001 µM",53.6%
same,"viability, T/C","second compound 0.1 µM, first compound 0.00316 µM",44.3%
same,"viability, T/C","second compound 0.1 µM, first compound 0.01 µM",37.8%
same,"viability, T/C","second compound 0.1 µM, first compound 0.0316 µM",19.9%
same,"viability, T/C","second compound 0.1 µM, first compound 0.1 µM",7.3%
same,"viability, T/C","second compound 0.316 µM, first compound 0.000316 µM",26%
same,"viability, T/C","second compound 0.316 µM, first compound 0.001 µM",28.6%
same,"viability, T/C","second compound 0.316 µM, first compound 0.00316 µM",13.9%
same,"viability, T/C","second compound 0.316 µM, first compound 0.01 µM",12.1%
same,"viability, T/C","second compound 0.316 µM, first compound 0.0316 µM",7.95%
same,"viability, T/C","second compound 0.316 µM, first compound 0.1 µM",3.56%
same,"viability, T/C","second compound 1 µM, first compound 0.000316 µM",18.2%
same,"viability, T/C","second compound 1 µM, first compound 0.001 µM",14.2%
same,"viability, T/C","second compound 1 µM, first compound 0.00316 µM",13.9%
same,"viability, T/C","second compound 1 µM, first compound 0.01 µM",6.42%
same,"viability, T/C","second compound 1 µM, first compound 0.0316 µM",5.57%
same,"viability, T/C","second compound 1 µM, first compound 0.1 µM",2.65%
same,"viability, T/C","second compound 3.16 µM, first compound 0.000316 µM",13.7%
same,"viability, T/C","second compound 3.16 µM, first compound 0.001 µM",11.4%
same,"viability, T/C","second compound 3.16 µM, first compound 0.00316 µM",7.28%
same,"viability, T/C","second compound 3.16 µM, first compound 0.01 µM",4.66%
same,"viability, T/C","second compound 3.16 µM, first compound 0.0316 µM",4.51%
same,"viability, T/C","second compound 3.16 µM, first compound 0.1 µM",2.8%
same,"viability, T/C","second compound 10 µM, first compound 0.000316 µM",9.87%
same,"viability, T/C","second compound 10 µM, first compound 0.001 µM",6.96%
same,"viability, T/C","second compound 10 µM, first compound 0.00316 µM",8.48%
same,"viability, T/C","second compound 10 µM, first compound 0.01 µM",4.45%
same,"viability, T/C","second compound 10 µM, first compound 0.0316 µM",3.9%
same,"viability, T/C","second compound 10 µM, first compound 0.1 µM",1.75%
